Tests used:
[1] = Irinotecan and metabolites plasma pharmacokinetics (LC-MS/MS, noncompartmental)
Description: (§1) Berzosertib plasma protein binding was assessed in vitro using rapid equilibrium dialysis (RED) devices (Thermo Fisher Scientific, Waltham, Massachusetts).
(§2) Plasma pharmacokinetic parameters were derived from the data by noncompartmental methods with WinNonlin (Certara). Statistical analyses for pharmacokinetic parameter values were performed using SPSS 27.0 for Windows (SPSS Inc, Chicago, Illinois).

[2] = design: method as in PMID 32568634; details: highest dose level 240 mg/m^2 once or twice weekly; cited from earlier work
[3] = Berzosertib plasma protein binding in vitro, rapid equilibrium dialysis; assay type: in vitro ADME; details: human plasma, 300 – 100,000 µg/L tested
[4] = tested on: patients with advanced solid tumors; experiment: Phase 1 safety of berzosertib plus irinotecan: treatment-related adverse events (CTCAE v5.0), DLT, MTD/RP2D; assay type: in vivo
Description: Berzosertib was supplied under a Collaborative Research and Development Agreement among NCI, Vertex Pharmaceuticals, and EMD Serono. Irinotecan was obtained from commercial sources.
Treatment cycles were 28 days long (Supporting Information S1: Figure S1).
A history and physical examination were conducted at baseline and before each cycle. Complete blood counts and serum chemistries were performed at baseline and weekly during C1 and every 2 weeks thereafter. Toxicities were graded using NCI Common Terminology Criteria for Adverse Events (version 5.0) and defined as adverse events that were possibly, probably, or definitely related to treatment. Radiographic evaluation was performed at baseline and every 8 weeks for tumor response based on Response Evaluation Criteria in Solid Tumors (RECIST) version 1.1.
DLs were evaluated using a modified Storer’s up and down design with the plan of enrolling up to 36 evaluable patients during dose escalation (Supporting Information S1: Figure S1).[8] Stage I of the Modified Storer’s up and down design is single patient dose escalation until a DLT is observed. Once a DLT is observed, patients are treated in cohorts of five in stage II of the design. The MTD was defined as the highest DL tested at which ≤20% patients experience dose limiting toxicity (DLT) during C1 of therapy.

p-Chk1 = details: reported value, no reference given; cited from earlier work
clinical = details: human, in vivo
Description: as §1, §2

[5] = tested on: ATM and H2AX phosphorylation in PBMCs; experiment: PBMC DNA damage signaling, quasi-quantitative dual multiplexed immunoblot; assay type: in vivo, human
Description: Blood was processed and analysis performed as described.[11]–[13]

[6] = tested on: γH2AX, pS343-NBS1, and pS824-KAP1; experiment: Tumor DNA damage signaling, multiplex immunofluorescence of paired biopsies; assay type: in vivo, human; details: 18–22 hours after end of irinotecan infusion (C1D-13), one colon cancer patient; 4% is the assay baseline
Source text: Paired tumor biopsies were collected from patients enrolled in the expansion cohort. […] The staining of FFPE tissue sections used the BOND RX autostainer (Leica Biosystems). For γH2AX and […]-NBS1 analysis, biotin-conjugated γH2AX (clone JBW301; EMD Millipore) and a custom-conjugated […]-NBS1-DIG (clone EP178; Abcam) antibodies were detected with the use of streptavidin labeled with Alexa Fluor 488 and Alexa Fluor 647 custom-conjugated IgG Fraction Monoclonal Mouse Anti-Digoxin antibody, respectively. For […]-KAP1 analysis, anti-[…]-KAP1 antibody (clone EPR5248; Abcam) custom conjugated to dinitrophenol (Molecular Probes, Inc) was detected using Alexa Fluor 488 conjugated anti-dinitrophenyl KLH rabbit polyclonal antibody. In addition, β-catenin antibody custom conjugated to Alexa Fluor 546 was used to define tumor areas in all biomarker analyses. For γH2AX and […]-NBS1 analysis, fluorescent whole slide images were acquired at 20× using Leica's Aperio FL scanner. Images were then analyzed using a custom algorithm build in Definiens Tissue Studio Analysis software (formerly Definiens AG). For […]-KAP1 analysis, whole slide fluorescent images were acquired at 20× using ZEISS Axioscan 7 scanner. Images were analyzed using a custom algorithm in HALO software (Indica Labs).

[7] = D15, irinotecan 180/150 mg/m^2 with berzosertib (N=41), geometric mean (SD)
[8] = D-14, irinotecan 180 mg/m^2 alone (N=55), geometric mean (SD)
[9] = N=39, with/without berzosertib, geometric mean (SD)
[10] = irinotecan 180 mg/m^2 (N=55), D-14 (alone), geometric mean (SD)

CCc1c2c(nc3ccc(OC(=O)N4CCC(NCCCCC(=O)O)CC4)cc13)-c1cc3c(c(=O)n1C2)COC(=O)[C@]3(O)CC [APC]
APC/ IRI AUC Ratio [1, 7]: 0.221 (1.96) | APC/ IRI AUC Ratio [1, 8]: 0.196 (1.80) | APC/ IRI AUC Ratio, D15/D-14 [1, 9]: 1.09 (1.50) | APC AUC0-inf ([1]; human, in vivo, 180 mg/m2): 2.74 (1.92) mg/L•h | APC Cmax ([1]; human, in vivo, 180 mg/m2): 201 (1.81) µg/L | APC t½ ([1]; irinotecan 180 mg/m^2 (N=55), day -14 of cycle 1, geometric mean (SD)): 12.1 (1.3) h

CCc1c2c(nc3ccc(O)cc13)-c1cc3c(c(=O)n1C2)COC(=O)[C@]3(O)CC [SN38]
SN38/ IRI AUC Ratio [1, 7]: 0.0282 (1.70) | SN38/ IRI AUC Ratio [1, 8]: 0.0268 (1.56) | SN38/ IRI AUC Ratio, D15/D-14 [1, 9]: 1.07 (1.48) | 90% CI of the AUC ratio (presence/absence of berzosertib) ([1]; bioequivalence approach): fell within the traditional boundaries of 80%–125% | SN38 AUC ratio D15/D-14, L-90%CI ([1]; bioequivalence assessment, lower 90% confidence interval): 93.6% | SN38 AUC ratio D15/D-14, Average BE ([1]; bioequivalence assessment, presence/absence of berzosertib): 106.6% | SN38 AUC ratio D15/D-14, U-90%CI ([1]; bioequivalence assessment, upper 90% confidence interval): 121.5% | SN38 AUC0-inf [1, 10]: 0.38 (1.8) mg/L•h | SN38 Cmax [1, 10]: 25.0 (1.78) µg/L | SN38 t½ [1, 10]: 19.9 (1.3) h | SN38 AUC Ratio D15/D-14 ([1]; presence/absence of berzosertib, dose-normalized AUC, geometric mean (SD)): 1.07 (1.7)

CNCc1ccc(-c2cc(-c3nc(-c4ccc(S(=O)(=O)C(C)C)cc4)cnc3N)on2)cc1 [berzosertib]
dose-limiting toxicities, monotherapy [2]: no dose-limiting toxicities | concentration from which the free fraction increased (plasma protein binding) [3]: approximately 30 μg/mL | berzosertib exposure (AUC) versus cycle 1 toxicity grade ([4]; human, in vivo): higher in patients with C1 higher any grade toxicity and higher hematologic grade toxicity | MTD and RP2D, berzosertib dose ([4]; with irinotecan 180 mg/m^2, iv every 2 weeks (DL4)): 270 mg/m^2 | human equivalent p-Chk1 IC50 (p-Chk1): approximately 110 ng/mL | Cl (clinical): 24.3 (1.30) L/h/m^2 | Cmax/Dose (clinical): 4.90 (1.45) µg/L / mg/m^2 | Tmax (clinical): 0.61 h | Vss (clinical): 530 (1.30) L/m^2 | Vz (clinical): 612 (1.31) L/m^2 | AUC(0-inf) (clinical; 60 mg/m2): 2330 ng·h/mL | Cl (clinical; 60 mg/m2): 25.7 (-) L/h/m^2 | Cmax (clinical; 60 mg/m2): 343 ng/mL | Cmax/Dose (clinical; 60 mg/m2): 5.72 (-) µg/L / mg/m^2 | Tmax (clinical; 60 mg/m2): 0.45 h | Vss (clinical; 60 mg/m2): 459 (-) L/m^2 | half-life (clinical; 60 mg/m2): 14.4 h | AUC(0-inf) (clinical; 120 mg/m2): 4190 ng·h/mL | Cl (clinical; 120 mg/m2): 28.7 (1.40) L/h/m^2 | Cmax (clinical; 120 mg/m2): 535 ng/mL | Tmax (clinical; 120 mg/m2): 0.54 h | half-life (clinical; 120 mg/m2): 14.1 h | AUC(0-inf) (clinical; 180 mg/m2): 8550 ng·h/mL | Cl (clinical; 180 mg/m2): 21.1 (1.20) L/h/m^2 | Cmax (clinical; 180 mg/m2): 1060 ng/mL | Cmax/Dose (clinical; 180 mg/m2): 5.92 (1.44) µg/L / mg/m^2 | Tmax (clinical; 180 mg/m2): 0.66 h | Vss (clinical; 180 mg/m2): 422 (1.37) L/m^2 | half-life (clinical; 180 mg/m2): 16.1 h | AUC(0-inf) (clinical; 270 mg/m2): 11000 ng·h/mL | Cl (clinical; 270 mg/m2): 24.6 (1.30) L/h/m^2 | Cmax (clinical; 270 mg/m2): 1260 ng/mL | Cmax/Dose (clinical; 270 mg/m2): 4.67 (1.46) µg/L / mg/m^2 | Tmax (clinical; 270 mg/m2): 0.61 h | Vss (clinical; 270 mg/m2): 578 (1.24) L/m^2 | half-life (clinical; 270 mg/m2): 18.8 h | half-life (clinical; iv): ~17 h | total clearance (clinical; iv): 24 L/h/m^2 | volume of distribution (clinical; iv): approximately 530 L/m^2

CCc1c2c(nc3ccc(OC(=O)N4CCC(N5CCCCC5)CC4)cc13)-c1cc3c(c(=O)n1C2)COC(=O)[C@]3(O)CC [irinotecan]
AUC(0-inf) ([1]; human, in vivo, 180 mg/m2): 14000 ng·h/mL | Cmax ([1]; human, in vivo, 180 mg/m2): 2180 ng/mL | induction of H2AX phosphorylation in PBMCs ([5]; 4 hours 30 minutes, returned to baseline by 24 hours): 10 fold | induction of ATM in PBMCs ([5]; irinotecan alone (C1D-14)): no induction of ATM | MTD and RP2D, irinotecan dose ([4]; with berzosertib 270 mg/m^2, iv every 2 weeks (DL4)): 180 mg/m^2 | γH2AX and pNBS1 in tumor biopsy [6]: > 4 % nuclear area positive (NAP)
